From the kinase profiling compilation of Christmann-Franck et al. (2016)

Legend:
Test in all cases: radiometric filter-binding kinase assay, Kinase HotSpot
Conditions in all cases: compound 0.5 µM; ATP 10 µM
DDR2 (human) = DDR2 (human) (UniProt Q16832)
MST4 (human) = MST4 (human) (UniProt Q9P289)
AURKC (human) = AURKC (human) (UniProt Q9UQB9)
MAP3K7 TAB1 (human) = MAP3K7 TAB1 (human) (UniProt O43318+Q15750)
PDGFRB (human) = PDGFRB (human) (UniProt P09619)
AKT2 (human) = AKT2 (human) (UniProt P31751)
TYRO3 (human) = TYRO3 (human) (UniProt Q06418)
WNK3 (human) = WNK3 (human) (UniProt Q9BYP7)
CDK4 CCND3 (human) = CDK4 CCND3 (human) (UniProt P30281+P11802)
PRKCZ (human) = PRKCZ (human) (UniProt Q05513)
LRRK2 (human) = LRRK2 (human) (UniProt Q5S007)
MAPK12 (human) = MAPK12 (human) (UniProt P53778)
WNK2 (human) = WNK2 (human) (UniProt Q9Y3S1)
FGFR1 (human) = FGFR1 (human) (UniProt P11362)
SRC (human) = SRC (human) (UniProt P12931)
MAPK8 (human) = MAPK8 (human) (UniProt P45983)
CLK3 (human) = CLK3 (human) (UniProt P49761)
MAPKAPK3 (human) = MAPKAPK3 (human) (UniProt Q16644)
MAP4K2 (human) = MAP4K2 (human) (UniProt Q12851)
CDC42BPB (human) = CDC42BPB (human) (UniProt Q9Y5S2)
ERBB4 (human) = ERBB4 (human) (UniProt Q15303)
SYK (human) = SYK (human) (UniProt P43405)
LIMK1 (human) = LIMK1 (human) (UniProt P53667)
MAPK13 (human) = MAPK13 (human) (UniProt O15264)
DAPK2 (human) = DAPK2 (human) (UniProt Q9UIK4)
FLT1 (human) = FLT1 (human) (UniProt P17948)
GRK7 (human) = GRK7 (human) (UniProt Q8WTQ7)
ACVR1 (human) = ACVR1 (human) (UniProt Q04771)
RPS6KA4 KD2 (human) = RPS6KA4 KD2 (human) (UniProt O75676)
NLK (human) = NLK (human) (UniProt Q9UBE8)
CDK6 CCND1 (human) = CDK6 CCND1 (human) (UniProt Q00534+P24385)
PLK3 (human) = PLK3 (human) (UniProt Q9H4B4)
TSSK2 (human) = TSSK2 (human) (UniProt Q96PF2)
TTK (human) = TTK (human) (UniProt P33981)
PIM2 (human) = PIM2 (human) (UniProt Q9P1W9)
PKN2 (human) = PKN2 (human) (UniProt Q16513)
RPS6KA5 KD2 (human) = RPS6KA5 KD2 (human) (UniProt O75582)
PRKCB2 (human) = PRKCB2 (human) (UniProt P05771)
FER (human) = FER (human) (UniProt P16591)
CSNK1E (human) = CSNK1E (human) (UniProt P49674)
CDK4 CCND1 (human) = CDK4 CCND1 (human) (UniProt P24385+P11802)
EPHA4 (human) = EPHA4 (human) (UniProt P54764)

Sequence of CLK3 (human) (P49761 whole entry, looked up): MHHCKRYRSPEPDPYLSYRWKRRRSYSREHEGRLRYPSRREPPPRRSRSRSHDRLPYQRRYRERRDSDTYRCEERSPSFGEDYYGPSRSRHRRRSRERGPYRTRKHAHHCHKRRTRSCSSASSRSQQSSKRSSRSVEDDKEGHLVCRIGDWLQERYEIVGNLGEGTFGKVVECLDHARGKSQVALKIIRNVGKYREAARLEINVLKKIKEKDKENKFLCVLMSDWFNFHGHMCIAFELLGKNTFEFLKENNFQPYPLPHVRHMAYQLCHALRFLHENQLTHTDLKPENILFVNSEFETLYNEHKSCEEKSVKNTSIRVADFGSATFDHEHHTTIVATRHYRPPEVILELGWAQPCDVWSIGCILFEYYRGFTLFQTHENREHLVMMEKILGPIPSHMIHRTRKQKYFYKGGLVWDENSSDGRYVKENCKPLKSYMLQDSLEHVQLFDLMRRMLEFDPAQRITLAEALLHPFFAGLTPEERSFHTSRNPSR
Sequence of LRRK2 (human) (Q5S007 whole entry, looked up): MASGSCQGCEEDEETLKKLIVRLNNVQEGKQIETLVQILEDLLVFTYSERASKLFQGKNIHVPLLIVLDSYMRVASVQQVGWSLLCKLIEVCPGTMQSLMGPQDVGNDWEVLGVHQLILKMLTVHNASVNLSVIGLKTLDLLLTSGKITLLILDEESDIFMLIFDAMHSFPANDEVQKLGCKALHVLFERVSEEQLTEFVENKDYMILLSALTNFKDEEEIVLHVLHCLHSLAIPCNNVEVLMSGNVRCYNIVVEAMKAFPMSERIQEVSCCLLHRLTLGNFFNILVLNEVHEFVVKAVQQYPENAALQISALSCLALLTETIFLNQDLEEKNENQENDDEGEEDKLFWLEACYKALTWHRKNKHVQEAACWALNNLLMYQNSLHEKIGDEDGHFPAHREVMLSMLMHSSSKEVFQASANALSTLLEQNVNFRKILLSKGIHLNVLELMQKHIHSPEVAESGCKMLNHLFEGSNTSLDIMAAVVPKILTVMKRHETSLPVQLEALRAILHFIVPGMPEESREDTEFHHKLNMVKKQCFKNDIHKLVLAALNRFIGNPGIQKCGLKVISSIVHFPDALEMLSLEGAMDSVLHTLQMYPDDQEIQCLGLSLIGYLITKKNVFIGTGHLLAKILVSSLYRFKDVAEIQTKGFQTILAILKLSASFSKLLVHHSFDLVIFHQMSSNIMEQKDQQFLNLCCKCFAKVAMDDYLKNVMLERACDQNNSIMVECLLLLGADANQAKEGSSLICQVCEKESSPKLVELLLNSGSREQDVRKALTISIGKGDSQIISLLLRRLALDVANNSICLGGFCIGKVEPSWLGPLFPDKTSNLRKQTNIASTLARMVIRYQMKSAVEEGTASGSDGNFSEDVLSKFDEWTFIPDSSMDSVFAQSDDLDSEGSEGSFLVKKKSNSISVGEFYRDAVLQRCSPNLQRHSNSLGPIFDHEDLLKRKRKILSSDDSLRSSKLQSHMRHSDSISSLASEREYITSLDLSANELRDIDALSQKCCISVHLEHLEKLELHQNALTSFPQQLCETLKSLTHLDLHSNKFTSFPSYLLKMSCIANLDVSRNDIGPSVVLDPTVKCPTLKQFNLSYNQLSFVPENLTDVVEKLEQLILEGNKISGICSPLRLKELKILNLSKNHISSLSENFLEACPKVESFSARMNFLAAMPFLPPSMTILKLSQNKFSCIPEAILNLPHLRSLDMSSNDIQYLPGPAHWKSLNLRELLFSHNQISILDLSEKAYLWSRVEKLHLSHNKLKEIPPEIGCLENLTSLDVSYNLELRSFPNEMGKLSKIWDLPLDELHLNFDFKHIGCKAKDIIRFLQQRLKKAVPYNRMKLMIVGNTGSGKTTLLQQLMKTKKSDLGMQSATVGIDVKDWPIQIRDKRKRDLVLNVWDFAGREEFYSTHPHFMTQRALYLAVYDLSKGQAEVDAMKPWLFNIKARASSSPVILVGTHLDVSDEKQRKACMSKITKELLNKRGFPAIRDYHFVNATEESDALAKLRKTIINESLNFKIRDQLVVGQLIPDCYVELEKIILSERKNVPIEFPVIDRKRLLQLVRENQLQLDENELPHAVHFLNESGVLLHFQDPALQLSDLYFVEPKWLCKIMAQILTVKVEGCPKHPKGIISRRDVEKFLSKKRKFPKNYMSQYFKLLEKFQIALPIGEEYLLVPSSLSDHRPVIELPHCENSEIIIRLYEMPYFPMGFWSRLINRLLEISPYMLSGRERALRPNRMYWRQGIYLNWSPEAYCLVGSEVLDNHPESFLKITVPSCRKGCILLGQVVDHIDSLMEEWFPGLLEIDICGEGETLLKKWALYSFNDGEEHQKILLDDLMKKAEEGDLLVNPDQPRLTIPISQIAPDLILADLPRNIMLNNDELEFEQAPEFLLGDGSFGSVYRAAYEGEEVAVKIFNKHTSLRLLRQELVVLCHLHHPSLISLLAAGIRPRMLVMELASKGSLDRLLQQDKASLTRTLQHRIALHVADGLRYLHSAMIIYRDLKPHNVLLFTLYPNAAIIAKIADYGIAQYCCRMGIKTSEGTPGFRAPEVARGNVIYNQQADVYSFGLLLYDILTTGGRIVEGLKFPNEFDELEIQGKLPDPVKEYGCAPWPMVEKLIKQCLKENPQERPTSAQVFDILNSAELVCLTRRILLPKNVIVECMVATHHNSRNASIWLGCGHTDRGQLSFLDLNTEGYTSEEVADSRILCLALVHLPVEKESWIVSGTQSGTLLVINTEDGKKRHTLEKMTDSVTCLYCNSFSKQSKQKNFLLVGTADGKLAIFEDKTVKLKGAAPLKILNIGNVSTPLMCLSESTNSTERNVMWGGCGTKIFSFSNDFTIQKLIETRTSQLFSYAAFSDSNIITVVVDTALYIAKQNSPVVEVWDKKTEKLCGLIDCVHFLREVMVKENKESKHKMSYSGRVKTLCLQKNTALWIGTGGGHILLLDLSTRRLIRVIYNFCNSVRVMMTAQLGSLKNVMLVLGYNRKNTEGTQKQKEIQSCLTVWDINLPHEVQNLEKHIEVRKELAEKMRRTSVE
Sequence of CSNK1E (human) (P49674 whole entry, looked up): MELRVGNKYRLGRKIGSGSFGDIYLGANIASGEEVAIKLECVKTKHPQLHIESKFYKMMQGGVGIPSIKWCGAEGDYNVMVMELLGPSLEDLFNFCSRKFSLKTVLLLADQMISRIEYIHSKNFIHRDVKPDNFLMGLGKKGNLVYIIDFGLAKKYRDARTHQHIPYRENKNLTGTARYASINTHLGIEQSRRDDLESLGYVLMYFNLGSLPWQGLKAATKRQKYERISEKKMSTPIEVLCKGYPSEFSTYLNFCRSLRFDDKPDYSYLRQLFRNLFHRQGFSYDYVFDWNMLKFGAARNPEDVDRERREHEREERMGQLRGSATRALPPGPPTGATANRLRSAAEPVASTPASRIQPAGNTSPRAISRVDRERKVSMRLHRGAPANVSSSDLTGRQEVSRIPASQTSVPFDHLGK
Sequence of RPS6KA5 KD2 (human) (O75582 whole entry, looked up): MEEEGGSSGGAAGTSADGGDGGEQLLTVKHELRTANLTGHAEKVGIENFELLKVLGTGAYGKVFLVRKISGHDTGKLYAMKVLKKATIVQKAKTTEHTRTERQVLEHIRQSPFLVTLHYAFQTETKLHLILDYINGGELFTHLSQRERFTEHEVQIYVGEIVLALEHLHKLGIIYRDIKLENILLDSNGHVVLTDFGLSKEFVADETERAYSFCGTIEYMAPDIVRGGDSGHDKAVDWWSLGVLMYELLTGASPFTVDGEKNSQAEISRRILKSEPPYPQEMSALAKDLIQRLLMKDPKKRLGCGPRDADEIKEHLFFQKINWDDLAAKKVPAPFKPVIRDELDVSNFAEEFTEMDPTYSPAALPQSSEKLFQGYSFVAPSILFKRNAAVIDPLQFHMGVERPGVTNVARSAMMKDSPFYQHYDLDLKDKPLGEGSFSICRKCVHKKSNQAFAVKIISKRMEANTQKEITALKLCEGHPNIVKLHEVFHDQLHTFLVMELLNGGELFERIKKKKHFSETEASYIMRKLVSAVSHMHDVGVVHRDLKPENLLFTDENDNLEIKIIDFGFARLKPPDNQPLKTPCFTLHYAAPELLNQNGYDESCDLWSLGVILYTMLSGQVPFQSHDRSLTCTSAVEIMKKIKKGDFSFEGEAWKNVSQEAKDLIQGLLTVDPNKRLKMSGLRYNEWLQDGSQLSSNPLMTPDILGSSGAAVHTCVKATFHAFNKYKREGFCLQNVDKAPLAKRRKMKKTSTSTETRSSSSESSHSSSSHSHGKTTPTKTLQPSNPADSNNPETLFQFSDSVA
Sequence of FGFR1 (human) (P11362 whole entry, looked up): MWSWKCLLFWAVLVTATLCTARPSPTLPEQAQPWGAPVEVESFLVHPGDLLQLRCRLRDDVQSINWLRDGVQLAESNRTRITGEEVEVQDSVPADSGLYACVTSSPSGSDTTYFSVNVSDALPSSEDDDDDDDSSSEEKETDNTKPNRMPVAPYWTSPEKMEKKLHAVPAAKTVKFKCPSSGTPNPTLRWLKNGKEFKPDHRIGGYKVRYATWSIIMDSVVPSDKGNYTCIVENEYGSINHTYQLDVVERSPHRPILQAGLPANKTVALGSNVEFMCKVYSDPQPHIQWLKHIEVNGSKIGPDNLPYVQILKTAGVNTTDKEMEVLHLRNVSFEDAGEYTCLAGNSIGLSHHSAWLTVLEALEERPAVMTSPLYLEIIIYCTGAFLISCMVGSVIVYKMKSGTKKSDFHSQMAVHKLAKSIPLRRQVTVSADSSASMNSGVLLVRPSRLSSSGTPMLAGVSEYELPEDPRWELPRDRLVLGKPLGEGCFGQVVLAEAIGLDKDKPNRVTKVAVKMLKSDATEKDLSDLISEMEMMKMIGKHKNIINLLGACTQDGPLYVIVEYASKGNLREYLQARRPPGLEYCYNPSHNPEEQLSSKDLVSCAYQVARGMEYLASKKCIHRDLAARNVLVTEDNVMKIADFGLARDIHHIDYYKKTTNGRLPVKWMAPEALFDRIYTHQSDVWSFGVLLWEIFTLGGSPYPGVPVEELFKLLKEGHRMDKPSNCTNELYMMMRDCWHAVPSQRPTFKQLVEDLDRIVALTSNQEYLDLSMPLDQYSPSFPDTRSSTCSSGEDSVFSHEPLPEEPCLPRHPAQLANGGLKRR

N/C(=N\N=C/c1ccc(-c2cccc([N+](=O)[O-])c2)o1)N[N+](=O)[O-]
residual activity (DDR2 (human)): 101%
residual activity (MST4 (human)): 99.5%
residual activity (AURKC (human)): 90.5%
residual activity (MAP3K7 TAB1 (human)): 91.5%
residual activity (PDGFRB (human)): 129%
residual activity (AKT2 (human)): 99.7%
residual activity (TYRO3 (human)): 91.5%
residual activity (WNK3 (human)): 96.6%
residual activity (CDK4 CCND3 (human)): 103%
residual activity (PRKCZ (human)): 90.1%
residual activity (LRRK2 (human)): 91%
residual activity (MAPK12 (human)): 93.4%
residual activity (WNK2 (human)): 106%
residual activity (FGFR1 (human)): 97.6%
residual activity (SRC (human)): 99%
residual activity (MAPK8 (human)): 91.2%
residual activity (CLK3 (human)): 97.7%
residual activity (MAPKAPK3 (human)): 95.4%
residual activity (MAP4K2 (human)): 115%
residual activity (CDC42BPB (human)): 95.4%
residual activity (ERBB4 (human)): 103%
residual activity (SYK (human)): 91.8%
residual activity (LIMK1 (human)): 99.7%
residual activity (MAPK13 (human)): 101%
residual activity (DAPK2 (human)): 80.1%
residual activity (FLT1 (human)): 97.6%
residual activity (GRK7 (human)): 97%
residual activity (ACVR1 (human)): 98%
residual activity (RPS6KA4 KD2 (human)): 98.9%
residual activity (NLK (human)): 103%
residual activity (CDK6 CCND1 (human)): 100%
residual activity (PLK3 (human)): 96.8%
residual activity (TSSK2 (human)): 101%
residual activity (TTK (human)): 95.9%
residual activity (PIM2 (human)): 106%
residual activity (PKN2 (human)): 92.6%
residual activity (RPS6KA5 KD2 (human)): 101%
residual activity (PRKCB2 (human)): 100%
residual activity (FER (human)): 94.7%
residual activity (CSNK1E (human)): 91%
residual activity (CDK4 CCND1 (human)): 96.6%

O=c1cc(N2CCOCC2)oc2c(-c3ccccc3)cccc12
residual activity (DDR2 (human)): 91.3%
residual activity (MST4 (human)): 97.2%
residual activity (AURKC (human)): 97%
residual activity (MAP3K7 TAB1 (human)): 85.4%
residual activity (PDGFRB (human)): 102%
residual activity (AKT2 (human)): 94%
residual activity (TYRO3 (human)): 107%
residual activity (WNK3 (human)): 89.2%
residual activity (CDK4 CCND3 (human)): 96.2%
residual activity (LRRK2 (human)): 96.9%
residual activity (MAPK12 (human)): 104%
residual activity (WNK2 (human)): 110%
residual activity (FGFR1 (human)): 96.6%
residual activity (SRC (human)): 96.3%
residual activity (MAPK8 (human)): 106%
residual activity (CLK3 (human)): 107%
residual activity (MAPKAPK3 (human)): 101%
residual activity (MAP4K2 (human)): 87.8%
residual activity (CDC42BPB (human)): 88.4%
residual activity (ERBB4 (human)): 102%
residual activity (SYK (human)): 99.7%
residual activity (LIMK1 (human)): 98.6%
residual activity (MAPK13 (human)): 93.3%
residual activity (DAPK2 (human)): 126%
residual activity (GRK7 (human)): 112%
residual activity (ACVR1 (human)): 91.2%
residual activity (RPS6KA4 KD2 (human)): 111%
residual activity (NLK (human)): 99.8%
residual activity (CDK6 CCND1 (human)): 97.9%
residual activity (PLK3 (human)): 71.9%
residual activity (TSSK2 (human)): 91.4%
residual activity (TTK (human)): 103%
residual activity (PIM2 (human)): 106%
residual activity (PKN2 (human)): 98.6%
residual activity (RPS6KA5 KD2 (human)): 99.5%
residual activity (PRKCB2 (human)): 104%
residual activity (FER (human)): 99.9%
residual activity (CSNK1E (human)): 103%
residual activity (EPHA4 (human)): 99.2%
residual activity (CDK4 CCND1 (human)): 111%

Cn1cc(/C=C2\C(=O)Nc3ccc(S(N)(=O)=O)cc32)c2ccccc21
residual activity (DDR2 (human)): 100%
residual activity (MST4 (human)): 101%
residual activity (AURKC (human)): 37.1%
residual activity (MAP3K7 TAB1 (human)): 48.9%
residual activity (PDGFRB (human)): 66%
residual activity (AKT2 (human)): 88.6%
residual activity (TYRO3 (human)): 90.5%
residual activity (WNK3 (human)): 99%
residual activity (CDK4 CCND3 (human)): 94%
residual activity (PRKCZ (human)): 105%
residual activity (LRRK2 (human)): 9.76%
residual activity (MAPK12 (human)): 101%
residual activity (WNK2 (human)): 97.7%
residual activity (FGFR1 (human)): 50.2%
residual activity (SRC (human)): 45.1%
residual activity (MAPK8 (human)): 108%
residual activity (CLK3 (human)): 81.4%
residual activity (MAPKAPK3 (human)): 91.5%
residual activity (MAP4K2 (human)): 17.4%
residual activity (CDC42BPB (human)): 114%
residual activity (ERBB4 (human)): 81.3%
residual activity (SYK (human)): 16.5%
residual activity (LIMK1 (human)): 74.1%
residual activity (MAPK13 (human)): 105%
residual activity (FLT1 (human)): 70.1%
residual activity (GRK7 (human)): 20.9%
residual activity (ACVR1 (human)): 111%
residual activity (RPS6KA4 KD2 (human)): 71.2%
residual activity (NLK (human)): 90.4%
residual activity (CDK6 CCND1 (human)): 82.4%
residual activity (PLK3 (human)): 99%
residual activity (TSSK2 (human)): 84%
residual activity (TTK (human)): 97.3%
residual activity (PIM2 (human)): 101%
residual activity (PKN2 (human)): 81.8%
residual activity (RPS6KA5 KD2 (human)): 80.9%
residual activity (PRKCB2 (human)): 86.7%
residual activity (FER (human)): 20%
residual activity (CSNK1E (human)): 89%
residual activity (EPHA4 (human)): 80.5%
residual activity (CDK4 CCND1 (human)): 106%
